Data: ChEMBL document CHEMBL2321651, “Structure-activity relationship study on benzoic acid part of diphenylamine-based retinoids” (Bioorg Med Chem Lett, 2013)
Activity calls are given as the source filed them. The calls are words filed in the database; no cut-off is given here.

What was measured:
[1] = test system: HL-60; assay: Induction of human HL60 cell differentiation; type: functional, cell-based
[2] = test system: HL-60; assay: Induction of human HL60 cell differentiation in presence of 1 x 10^-10 M RAR agonist Am80; type: functional, cell-based
[3] = target: T1, Retinoid X receptor (Homo sapiens, UniProt P28702+P48443+P19793); assay: Agonist activity at RXR (unknown origin) in presence of RAR agonist Am80; type: protein assay
T1 sequence (P28702 whole entry): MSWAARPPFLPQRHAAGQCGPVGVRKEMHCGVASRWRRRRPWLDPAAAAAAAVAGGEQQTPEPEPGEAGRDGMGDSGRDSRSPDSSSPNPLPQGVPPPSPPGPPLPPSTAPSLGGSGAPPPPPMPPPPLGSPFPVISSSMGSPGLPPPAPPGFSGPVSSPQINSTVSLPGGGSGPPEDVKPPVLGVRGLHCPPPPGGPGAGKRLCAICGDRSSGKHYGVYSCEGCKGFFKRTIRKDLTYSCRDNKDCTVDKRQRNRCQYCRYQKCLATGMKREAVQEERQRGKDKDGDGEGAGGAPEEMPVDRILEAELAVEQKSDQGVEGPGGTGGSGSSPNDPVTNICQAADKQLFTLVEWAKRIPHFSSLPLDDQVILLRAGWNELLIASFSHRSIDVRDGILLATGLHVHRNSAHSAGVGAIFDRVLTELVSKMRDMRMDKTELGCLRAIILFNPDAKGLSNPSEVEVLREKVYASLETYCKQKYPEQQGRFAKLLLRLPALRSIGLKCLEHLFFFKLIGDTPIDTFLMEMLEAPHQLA
T1 sequence (P48443 whole entry): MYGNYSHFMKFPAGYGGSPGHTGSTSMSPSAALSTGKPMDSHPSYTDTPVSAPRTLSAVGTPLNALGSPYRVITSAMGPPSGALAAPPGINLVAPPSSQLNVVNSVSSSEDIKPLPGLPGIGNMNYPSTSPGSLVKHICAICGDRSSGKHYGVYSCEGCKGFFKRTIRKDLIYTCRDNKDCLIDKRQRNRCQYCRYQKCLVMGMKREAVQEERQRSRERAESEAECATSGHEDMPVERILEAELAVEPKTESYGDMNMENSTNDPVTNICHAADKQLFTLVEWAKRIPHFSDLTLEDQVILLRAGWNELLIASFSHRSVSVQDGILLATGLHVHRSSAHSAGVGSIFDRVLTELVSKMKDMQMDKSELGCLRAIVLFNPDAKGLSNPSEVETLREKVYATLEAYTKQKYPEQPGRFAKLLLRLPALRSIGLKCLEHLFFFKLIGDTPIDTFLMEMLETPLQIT
T1 sequence (P19793 whole entry): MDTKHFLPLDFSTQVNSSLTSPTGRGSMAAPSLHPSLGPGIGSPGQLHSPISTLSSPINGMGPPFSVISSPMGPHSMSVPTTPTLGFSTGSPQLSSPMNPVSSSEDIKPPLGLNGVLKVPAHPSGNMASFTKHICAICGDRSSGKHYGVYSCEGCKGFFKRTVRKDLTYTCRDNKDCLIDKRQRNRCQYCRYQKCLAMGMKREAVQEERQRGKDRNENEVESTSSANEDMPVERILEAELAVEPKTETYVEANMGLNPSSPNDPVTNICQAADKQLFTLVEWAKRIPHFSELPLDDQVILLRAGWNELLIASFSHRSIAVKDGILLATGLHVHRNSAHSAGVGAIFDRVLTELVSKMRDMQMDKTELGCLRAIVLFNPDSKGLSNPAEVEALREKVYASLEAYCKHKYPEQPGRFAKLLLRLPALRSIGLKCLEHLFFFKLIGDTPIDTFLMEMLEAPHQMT

[4] = Agonist activity at RAR/RXR (unknown origin) in presence of RAR agonist Am80; set-up: species or system Homo sapiens
[5] = Agonist activity at RAR/RXR (unknown origin); set-up: species or system Homo sapiens
[6] = test system: HL-60; assay: Induction of human HL60 cell differentiation at 3.3 x 10^-10 M; type: functional
[7] = test system: HL-60; assay: Induction of human HL60 cell differentiation at 1 x 10^-10 M; type: functional
[8] = test system: HL-60; assay: Inhibition of Am80-induced human HL60 cell differentiation; type: cell-based

| SMILES | Activity [1] | Activity [2] | also measured |
| --- | --- | --- | --- |
| CCCN(c1ccc(CCC(=O)O)cc1)c1cc2c(cc1C)C(C)(C)CCC2(C)C | Active | Active | – |
| CN(c1ccc(/C=C/C(=O)O)cc1)c1ccc2c(c1)C(C)(C)CCC2(C)C | – | Active | EC50 [1]: 22 nM |
| CN(c1ccc(CCC(=O)O)cc1)c1ccc2c(c1)C(C)(C)CCC2(C)C | Active | Active | – |
| Cc1cc2c(cc1N(C)c1ccc(CCC(=O)O)cc1)C(C)(C)CCC2(C)C | Active | Active | – |
| Cc1cc2c(cc1N(C)c1ccc(C(=O)O)cc1)C(C)(C)CCC2(C)C | Active | Active | EC50 [3]: 1.3 ×10⁻¹⁰ M |
| CN(c1ccc(C(=O)O)cc1)c1ccc2c(c1)C(C)(C)CCC2(C)C | Active | – | EC50 [4]: 6.6 nM; EC50 ([5]; read-out: EC50): 360 nM |
| CCCN(c1ccc(CCC(=O)O)cc1)c1ccc2c(c1)C(C)(C)CCC2(C)C | Active | Active | – |
| CC1(C)CCC(C)(C)c2cc(NC(=O)c3ccc(C(=O)O)cc3)ccc21 [TAMIBAROTENE] | – | – | Activity [6]: 60%; Activity [7]: 5% |
| CCCN(c1ccc(/C=C/C(=O)O)cc1)c1ccc2c(c1)C(C)(C)CCC2(C)C | Active | Active | – |
| CCCN(c1ccc(/C=C/C(=O)O)cc1)c1cc2c(cc1C)C(C)(C)CCC2(C)C | Active | Active | – |
| CCCN(c1ccc(C(=O)O)cc1)c1cc2c(cc1C)C(C)(C)CCC2(C)C | – | Active | EC50 [3]: 1.4 ×10⁻¹⁰ M |
| Cc1cc(C(=O)O)ccc1N(C)c1ccc2c(c1)C(C)(C)CCC2(C)C | inactive | inactive | inhibition (INH) [8]: Dose-dependent effect |
| CCCN(c1ccc(C(=O)O)cc1)c1ccc2c(c1)C(C)(C)CCC2(C)C | – | Active | EC50 [4]: 1.5 nM; EC50 [5]: Not Active |
| Cc1cc2c(cc1N(C)c1ccc(/C=C/C(=O)O)cc1)C(C)(C)CCC2(C)C | – | Active | EC50 [1]: 38 nM |
